Results taken from US12233057B2, “Small molecules for inhibiting chemokine activity and/or cancer cells growth” (AlonBio Ltd., priority 2015, dated 2025).

Tests used:
MCP-1 = MCP-1 (Homo sapiens, UniProt P13500); assay: Migration assay: THP-1 cells towards MCP-1 (Transwell); assay type: cell-based; settings: BKT300 at 78% purity
Description: (§1) 600 μl of RPMI medium was added to the lower chambers of Transwell® transmigration plates, supplemented with 2 μg/ml of MIP3a, 100 ng/ml of SDF-1 or 10 ng/ml of MCP-1. The tested small molecule was added to the lower chambers at the indicated concentration, except in control samples. The MIP3a, SDF-1 or MCP-1 was incubated with the small molecule for 30 minutes at room temperature before the initiation of the migration assay. Following 30 minutes of incubation 2×10^5 immune cells were added to the upper chambers of the transmigration plates in a total volume of 100 μl. Cells which migrated within 3 hours to the bottom chamber of the Transwell® plates were counted using a FACScalibur™ flow cytometer.
To evaluate migration towards MCP-1, JTHP-1 cells were re-suspended in RPMI medium containing 1% fetal calf serum (FCS).

MIP3a = MIP3a (Homo sapiens, UniProt P78556); assay: Migration assay: CD4+ T-cells toward MIP3a (Transwell); assay type: cell-based; settings: BKT300 at 78% purity, 50 μg/ml
Description: as §1
To evaluate migration toward MIP3a, peripheral blood mononuclear cells (PBMCs) were isolated from heparinized venous blood by centrifugation over Ficoll Histopaque® 1077. CD4+ T cells were further isolated with RosetteSep™ human CD4+ T-cell Enrichment cocktail (StemCell Technologies Inc.), according to the manufacturer's instructions.
The 18 compounds uncovered by the screening assay were further tested for their ability, at final concentrations of 10 and 50 μg/ml, to inhibit the migration of human CD4+ T-cells toward MIP3a; and to inhibit the migration of immune cells in response to MCP-1 and SDF-1, using the procedures described in the Materials and Methods section hereinabove.

MV4-11 (FLT3-ITD) cells = assay: In vivo AML model: NSG mice transplanted with MV4-11 cells; settings: BKT300 at 98% purity, 1 mg/Kg intraperitoneally, three consecutive days from day 21; day 25; anti human CD45
Description: The effect of BKT300 (at 98% purity) on the proliferation of AML cells in vivo was examined by treatment of NOD Scid gamma (NSG) mice transplanted with MV4-11 (FLT3-ITD) cells.
The mice were subjected to irradiation with 300 rad and on the following day were transplanted by IV injection with MV4-11 (FLT3-ITD) cells, 10×10^6 cells/mouse. 21 days following transplantation, the treated group was injected intraperitoneally with 1 mg/Kg of BKT300 (98% purity) per injection for three consecutive days. On day 25 following transplantation, mice were sacrificed and the survival of the human AML blasts in the blood, spleen and the bone marrow was evaluated using anti human CD45.

MLCK (MLCK2) = MLCK (MLCK2) (Homo sapiens, UniProt Q9H1R3); assay: LanthaScreen europium kinase binding assay; settings: BKT300 at 78% purity
Description: (§2) In order to further characterize the effect of BKT300 on cell signaling, kinase profiling of BKT300 (at 78% purity) was performed (by the Life Technologies SelectScreen® Biochemical Profiling Lab) using a LanthaScreen® europium kinase binding assay to screen 440 kinases.
(§3) The principle of the LanthaScreen® assay is depicted in FIG. 13. Binding of an Alexa Fluor® conjugate or “tracer” to a kinase is detected by addition of a europium (Eu)-labeled anti-tag antibody. Binding of the tracer and antibody to a kinase results in a high degree of FRET, whereas displacement of the tracer with a kinase inhibitor results in a loss of FRET. The kinase tracers are based on ATP-competitive kinase inhibitors, making them suitable for detection of any compounds that bind to the ATP site. Inhibitors that bind the ATP site include both Type I kinase inhibitors, which bind solely to the ATP site, and Type II inhibitors (e.g., imatinib, sorafenib, BIRB-796), which bind to both the ATP site and a second site often referred to as the allosteric site.

CDK8/cyclin C = CDK8/cyclin C (Homo sapiens, UniProt P49336); assay: LanthaScreen europium kinase binding assay; settings: BKT300 at 78% purity
Description: as §2, §3

ACVRL1 (ALK1) = ACVRL1 (ALK1) (Homo sapiens, UniProt P37023); assay: LanthaScreen europium kinase binding assay; settings: BKT300 at 78% purity
Description: as §2, §3

MELK = MELK (Homo sapiens, UniProt Q14680); assay: LanthaScreen europium kinase binding assay
Description: as §2, §3

BMPR1A (ALK3) = BMPR1A (ALK3) (Homo sapiens, UniProt P36894); assay: LanthaScreen europium kinase binding assay; settings: BKT300 at 78% purity
Description: as §2, §3

CLK4 = CLK4 (Homo sapiens, UniProt Q9HAZ1); assay: LanthaScreen europium kinase binding assay; settings: BKT300 at 78% purity
Description: as §2, §3

MAPK10 (JNK3) = MAPK10 (JNK3) (Homo sapiens, UniProt P53779); assay: LanthaScreen europium kinase binding assay; settings: BKT300 at 78% purity
Description: as §2, §3

CDK11 (Inactive) = CDK11 (Inactive) (Homo sapiens, UniProt Q9BWU1); assay: LanthaScreen europium kinase binding assay; settings: BKT300 at 78% purity
Description: as §2, §3

CDC7/DBF4 = CDC7/DBF4 (Homo sapiens, UniProt O00311); assay: LanthaScreen europium kinase binding assay; settings: BKT300 at 78% purity
Description: as §2, §3

STK17B (DRAK2) = STK17B (DRAK2) (Homo sapiens, UniProt O94768); assay: LanthaScreen europium kinase binding assay; settings: BKT300 at 78% purity
Description: as §2, §3

GRK5 = GRK5 (Homo sapiens, UniProt P34947); assay: LanthaScreen europium kinase binding assay; settings: BKT300 at 78% purity
Description: as §2, §3

KIT T670E = KIT T670E (Homo sapiens, UniProt P10721, T670E); assay: LanthaScreen europium kinase binding assay; settings: BKT300 at 78% purity
Description: as §2, §3

STK17A (DRAK1) = STK17A (DRAK1) (Homo sapiens, UniProt Q9UEE5); assay: LanthaScreen europium kinase binding assay; settings: BKT300 at 78% purity
Description: as §2, §3

GRK4 = GRK4 (Homo sapiens, UniProt P32298); assay: LanthaScreen europium kinase binding assay; settings: BKT300 at 78% purity
Description: as §2, §3

DYRK3 = DYRK3 (Homo sapiens, UniProt O43781); assay: LanthaScreen europium kinase binding assay; settings: BKT300 at 78% purity
Description: as §2, §3

Sequence of MELK (Q14680 whole entry): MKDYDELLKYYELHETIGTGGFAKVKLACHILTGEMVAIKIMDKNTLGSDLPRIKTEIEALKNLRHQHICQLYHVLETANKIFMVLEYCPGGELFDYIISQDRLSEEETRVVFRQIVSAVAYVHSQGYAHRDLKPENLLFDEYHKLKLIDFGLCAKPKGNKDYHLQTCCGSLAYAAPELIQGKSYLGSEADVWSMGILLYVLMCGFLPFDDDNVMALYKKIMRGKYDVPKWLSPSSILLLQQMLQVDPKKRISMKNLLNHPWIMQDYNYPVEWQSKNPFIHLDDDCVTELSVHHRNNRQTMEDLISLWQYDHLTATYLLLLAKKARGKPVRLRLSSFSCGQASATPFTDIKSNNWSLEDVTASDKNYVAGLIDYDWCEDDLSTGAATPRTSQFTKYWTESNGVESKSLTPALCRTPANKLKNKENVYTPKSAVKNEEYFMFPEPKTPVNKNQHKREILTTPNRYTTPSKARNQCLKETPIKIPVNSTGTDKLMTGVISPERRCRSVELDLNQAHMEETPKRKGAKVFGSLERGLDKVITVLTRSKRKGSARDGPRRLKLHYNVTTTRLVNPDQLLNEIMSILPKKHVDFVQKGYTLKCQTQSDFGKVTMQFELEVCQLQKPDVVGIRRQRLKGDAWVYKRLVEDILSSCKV
Sequence of MCP-1 (P13500 24-99): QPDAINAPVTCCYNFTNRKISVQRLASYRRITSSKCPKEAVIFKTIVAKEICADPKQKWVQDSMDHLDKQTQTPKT
Sequence of CDK11 (Inactive) (Q9BWU1 whole entry): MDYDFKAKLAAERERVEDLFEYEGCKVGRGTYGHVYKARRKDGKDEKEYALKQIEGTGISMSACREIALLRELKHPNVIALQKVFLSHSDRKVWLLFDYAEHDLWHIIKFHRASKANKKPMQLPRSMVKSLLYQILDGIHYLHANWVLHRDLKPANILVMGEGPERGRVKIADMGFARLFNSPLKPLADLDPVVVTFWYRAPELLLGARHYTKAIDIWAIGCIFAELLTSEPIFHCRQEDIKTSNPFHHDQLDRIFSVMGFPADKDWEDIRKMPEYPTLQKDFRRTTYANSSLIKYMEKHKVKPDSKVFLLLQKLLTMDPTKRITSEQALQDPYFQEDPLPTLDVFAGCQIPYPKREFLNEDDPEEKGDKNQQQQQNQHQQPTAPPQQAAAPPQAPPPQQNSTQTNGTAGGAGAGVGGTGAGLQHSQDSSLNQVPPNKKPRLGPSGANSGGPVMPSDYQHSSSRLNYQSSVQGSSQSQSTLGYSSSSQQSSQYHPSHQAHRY
Sequence of GRK4 (P32298 whole entry): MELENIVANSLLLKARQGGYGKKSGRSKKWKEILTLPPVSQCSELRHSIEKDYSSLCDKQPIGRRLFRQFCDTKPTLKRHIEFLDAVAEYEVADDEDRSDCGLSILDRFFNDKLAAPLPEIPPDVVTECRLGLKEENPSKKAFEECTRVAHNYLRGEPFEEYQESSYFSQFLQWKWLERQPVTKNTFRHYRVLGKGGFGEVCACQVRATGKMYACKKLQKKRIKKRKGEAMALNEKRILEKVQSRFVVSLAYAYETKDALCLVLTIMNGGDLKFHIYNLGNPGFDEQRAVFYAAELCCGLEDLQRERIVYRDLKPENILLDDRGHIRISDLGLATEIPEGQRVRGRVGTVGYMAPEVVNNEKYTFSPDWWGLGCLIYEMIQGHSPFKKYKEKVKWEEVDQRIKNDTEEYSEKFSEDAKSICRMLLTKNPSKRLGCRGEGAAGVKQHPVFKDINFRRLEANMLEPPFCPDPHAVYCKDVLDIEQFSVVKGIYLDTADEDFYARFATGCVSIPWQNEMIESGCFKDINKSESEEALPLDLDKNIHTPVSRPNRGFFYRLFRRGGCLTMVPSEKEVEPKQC
Sequence of CDK8/cyclin C (P49336 whole entry): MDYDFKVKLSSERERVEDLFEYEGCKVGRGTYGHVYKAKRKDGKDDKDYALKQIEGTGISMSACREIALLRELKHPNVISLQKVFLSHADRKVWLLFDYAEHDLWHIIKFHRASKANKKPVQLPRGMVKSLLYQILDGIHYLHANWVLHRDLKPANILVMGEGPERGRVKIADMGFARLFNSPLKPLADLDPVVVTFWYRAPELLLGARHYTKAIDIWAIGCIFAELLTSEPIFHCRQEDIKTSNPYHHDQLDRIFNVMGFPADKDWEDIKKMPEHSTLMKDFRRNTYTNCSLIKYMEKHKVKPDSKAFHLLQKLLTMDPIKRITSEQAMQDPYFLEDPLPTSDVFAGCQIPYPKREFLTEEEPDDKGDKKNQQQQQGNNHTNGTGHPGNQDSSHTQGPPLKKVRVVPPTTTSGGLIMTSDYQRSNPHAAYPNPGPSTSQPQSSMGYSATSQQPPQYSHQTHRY
Sequence of CDK8/cyclin C (P24863 whole entry partner): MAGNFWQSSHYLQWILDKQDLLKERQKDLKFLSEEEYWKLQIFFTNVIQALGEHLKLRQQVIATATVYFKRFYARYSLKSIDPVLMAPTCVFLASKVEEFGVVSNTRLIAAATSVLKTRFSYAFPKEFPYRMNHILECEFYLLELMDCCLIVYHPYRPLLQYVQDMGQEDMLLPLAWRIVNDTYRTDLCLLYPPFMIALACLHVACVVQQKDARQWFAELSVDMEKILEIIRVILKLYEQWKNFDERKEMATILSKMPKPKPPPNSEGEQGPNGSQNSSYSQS
Sequence of STK17B (DRAK2) (O94768 whole entry): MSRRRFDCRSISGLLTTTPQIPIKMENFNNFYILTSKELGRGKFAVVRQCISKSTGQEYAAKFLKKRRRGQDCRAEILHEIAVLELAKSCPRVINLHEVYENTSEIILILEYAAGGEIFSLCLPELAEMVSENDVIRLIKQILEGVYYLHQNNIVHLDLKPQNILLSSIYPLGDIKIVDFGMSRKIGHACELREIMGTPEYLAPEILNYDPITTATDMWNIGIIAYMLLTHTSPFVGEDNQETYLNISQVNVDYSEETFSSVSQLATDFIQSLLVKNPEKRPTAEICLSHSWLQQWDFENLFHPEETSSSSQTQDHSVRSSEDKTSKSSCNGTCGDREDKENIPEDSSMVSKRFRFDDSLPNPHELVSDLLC
Sequence of KIT T670E (P10721 26-976 T670E): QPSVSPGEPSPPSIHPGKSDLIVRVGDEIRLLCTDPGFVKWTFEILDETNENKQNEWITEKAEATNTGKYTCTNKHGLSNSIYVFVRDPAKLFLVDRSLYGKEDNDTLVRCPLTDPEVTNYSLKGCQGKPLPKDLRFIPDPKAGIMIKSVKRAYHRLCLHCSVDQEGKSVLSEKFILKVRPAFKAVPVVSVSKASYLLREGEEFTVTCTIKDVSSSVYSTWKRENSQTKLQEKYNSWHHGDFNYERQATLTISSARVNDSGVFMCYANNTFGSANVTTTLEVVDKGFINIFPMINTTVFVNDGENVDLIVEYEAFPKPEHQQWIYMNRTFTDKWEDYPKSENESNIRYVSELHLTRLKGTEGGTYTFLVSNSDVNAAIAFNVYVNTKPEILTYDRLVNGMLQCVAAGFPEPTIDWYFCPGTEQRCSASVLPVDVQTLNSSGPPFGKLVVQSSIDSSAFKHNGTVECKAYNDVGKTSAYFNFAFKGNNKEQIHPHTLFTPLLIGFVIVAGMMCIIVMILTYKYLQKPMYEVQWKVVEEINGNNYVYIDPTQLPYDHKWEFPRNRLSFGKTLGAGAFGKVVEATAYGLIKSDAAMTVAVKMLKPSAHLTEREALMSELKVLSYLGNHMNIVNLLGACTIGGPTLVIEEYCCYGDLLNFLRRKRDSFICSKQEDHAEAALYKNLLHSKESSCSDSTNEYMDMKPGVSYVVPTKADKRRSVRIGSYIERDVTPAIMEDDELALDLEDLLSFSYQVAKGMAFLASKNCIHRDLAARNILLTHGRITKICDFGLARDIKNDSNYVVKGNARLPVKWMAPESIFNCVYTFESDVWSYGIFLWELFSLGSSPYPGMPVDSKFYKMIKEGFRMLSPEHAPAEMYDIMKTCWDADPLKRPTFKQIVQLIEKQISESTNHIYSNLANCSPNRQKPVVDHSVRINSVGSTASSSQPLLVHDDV
Sequence of BMPR1A (ALK3) (P36894 24-532): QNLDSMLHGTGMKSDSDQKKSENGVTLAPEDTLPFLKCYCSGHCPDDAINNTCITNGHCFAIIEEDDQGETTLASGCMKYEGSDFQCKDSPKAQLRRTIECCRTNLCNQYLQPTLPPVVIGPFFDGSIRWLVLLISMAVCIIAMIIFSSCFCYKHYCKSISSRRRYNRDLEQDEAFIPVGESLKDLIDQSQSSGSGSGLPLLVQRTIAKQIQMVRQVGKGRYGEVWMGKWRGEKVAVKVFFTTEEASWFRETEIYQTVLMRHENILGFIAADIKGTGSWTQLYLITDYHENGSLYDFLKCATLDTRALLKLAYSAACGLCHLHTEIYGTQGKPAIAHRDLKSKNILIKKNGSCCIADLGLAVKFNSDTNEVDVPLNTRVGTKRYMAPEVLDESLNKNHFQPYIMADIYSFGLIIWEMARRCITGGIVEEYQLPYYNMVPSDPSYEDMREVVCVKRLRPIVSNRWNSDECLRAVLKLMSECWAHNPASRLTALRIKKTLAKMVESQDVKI
Sequence of GRK5 (P34947 whole entry): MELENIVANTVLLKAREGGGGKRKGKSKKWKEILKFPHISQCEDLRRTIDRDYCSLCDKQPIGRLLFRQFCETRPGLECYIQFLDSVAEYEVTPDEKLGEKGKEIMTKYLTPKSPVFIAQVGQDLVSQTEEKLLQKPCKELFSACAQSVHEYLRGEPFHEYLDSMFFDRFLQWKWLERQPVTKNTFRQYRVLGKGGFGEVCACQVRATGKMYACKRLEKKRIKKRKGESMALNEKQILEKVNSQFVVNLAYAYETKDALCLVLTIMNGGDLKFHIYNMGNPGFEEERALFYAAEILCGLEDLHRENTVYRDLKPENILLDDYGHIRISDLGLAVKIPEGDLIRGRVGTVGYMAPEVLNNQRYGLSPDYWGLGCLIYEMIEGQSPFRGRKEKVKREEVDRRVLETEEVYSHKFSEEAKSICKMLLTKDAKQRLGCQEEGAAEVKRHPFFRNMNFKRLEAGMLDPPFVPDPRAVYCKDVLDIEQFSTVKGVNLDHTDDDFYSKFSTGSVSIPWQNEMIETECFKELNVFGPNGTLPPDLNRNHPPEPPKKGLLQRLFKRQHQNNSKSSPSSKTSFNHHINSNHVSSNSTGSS

- Effect on migration of THP-1 cells towards MCP-1 (MCP-1; 10 μg/ml): no apparent effect
- Inhibition of migration of THP-1 cells towards MCP-1 (MCP-1; 50 μg/ml): strong inhibition
- Inhibition of CD4+ T-cell migration towards MIP3a (MIP3a): completely inhibited
- % Inhibition (MLCK (MLCK2)): 58%
- % Inhibition (CDK8/cyclin C): 64%
- % Inhibition (ACVRL1 (ALK1)): 47%
- % Inhibition (MELK; BKT300 at 78% purity): 41%
- Affinity of BKT300 to the kinase (MELK; based on the kinase screening assay summarized in Table 2, relatively low): few tens
- % Inhibition (BMPR1A (ALK3)): 58%
- % Inhibition (CLK4): 73%
- % Inhibition (MAPK10 (JNK3)): 49%
- % Inhibition (CDK11 (Inactive)): 57%
- % Inhibition (CDC7/DBF4): 53%
- % Inhibition (STK17B (DRAK2)): 107%
- % Inhibition (GRK5): 65%
- % Inhibition (KIT T670E): 51%
- % Inhibition (STK17A (DRAK1)): 48%
- % Inhibition (GRK4): 63%
- % Inhibition (DYRK3): 47%
SMILES: CCCCCc1cc2cc(O)cc(Oc3c(O)cc(O)cc3CCCCC)c2c(=O)o1 [BKT300]
- Number and percentage of AML cells in the bone marrow (MV4-11 (FLT3-ITD) cells): dramatically reduced
